Where two headings read alike, the source gives them in different places.
How the values were obtained:
benzodiazepine receptor [1] = conditions: in vitro; cited from earlier work
[2] = tested on: mice belonging to the ABP/Le strain; experiment: In vivo convulsant properties in ABP/Le mice; design: species or system mouse; conditions: 20 mg/kg intraperitoneally, 14 mice, observation after 30 minutes
Protocol: Compound 1 was tested first for its convulsant properties. The test was carried out on 14 mice (5 males and 9 females) aged two months belonging to the ABP/Le strain. This particular strain is very sensitive to convulsions induced by β-carbolines. Compound 1 was administered intraperitoneally at a dose of 20 mg/kg and observation took place after 30 minutes. […] The compound is therefore not convulsant.

[3] = tested on: GABA receptor/benzodiazepine receptor/chloride channel complexes; experiment: Electrophysiological test on Xenopus oocyte (injected with chicken optical lobe mRNA), pharmacological profile; type: cell-based; conditions: for change of the potential difference (PD) of the oocyte: 10^-6 M, in 10^-5 M GABA bath; for pharmacological profile at the benzodiazepine receptor: Xenopus oocyte
Excerpt: B--Pharmacological Property of the Compound of Example 1 Determination of the Pharmacological Profile
This study consists of an electrophysiological test on Xenopus oocyte. The cells of chicken optical lobes fortuitously have a good response to GABA. The total RNAs are extracted therefrom and passed through an oligo(dT) affinity column, thus making it possible to separate the crude messenger RNAs therefrom, because the latter have a poly(A) end tail which will combine by complementarity with the oligo(dT) residues of the column. These messenger RNAs will then be injected into a Xenopus oocyte, which is only a one and only cell. These oocytes will then be incubated and, in two days, the messenger RNAs will be expressed and will thus, by virtue of the cell machinery of the oocyte, have produced GABA receptor/benzodiazepine receptor/chloride channel complexes. These large protein entities will then migrate in the cell and will reach the membrane, thus making it possible for this receptor and the transmembrane ion channel which is combined with it to take its place.
The oocyte is then placed in a 10^-5 M GABA bath in Ringer solution and two microelectrodes A and B are introduced therein, a third microelectrode being placed outside the cell to act as reference. Microelectrode A will be used to measure the potential difference (PD) between the interior and the exterior of the oocyte. A PD of 60 mV is imposed on the oocyte and the microelectrode B will be used to maintain this desired PD.
By perfusing an agonist such as diazepam, the latter and the GABA present in the medium will exert an allosteric effect at the level of the receptor with, as corollary, opening of the ion channel. There will therefore be entry of chloride into the oocyte and the PD will greatly increase. On the other hand, an inverse agonist such as β-CCM will cause a reduction in the binding of the GABA to the receptor with, as consequence, a reduction in the time of opening of the chloride channel and a lower PD.
An antagonist will occupy the binding site of the benzodiazepine receptor but will have no effect on the binding of the GABA. The opening of the chloride channel will therefore not be disturbed and the PD will not vary.

benzodiazepine receptor [4] = experiment: In vitro affinity for the benzodiazepine receptor on rat cortex membrane; type: binding
Protocol: A--In Vitro Tests on Cortex Membrane
The compounds of Examples 1 to 14 were tested on rat cortex membrane in order to determine their affinity for the benzodiazepine receptor.

female Swiss mice = experiment: Passive avoidance test with learning in a single test (memory); type: in vivo, mouse; conditions: 20 mg/kg intraperitoneal
Protocol: Compound 1 was then tested on learning. This test, passive avoidance with learning in a single test, was carried out on 30 female Swiss mice aged two months. Compound 1 was administered to 15 mice at a dose of 20 mg/kg, the other 15 receiving an injection of physiological serum.
The equipment consists of a white box connected to a black box by a door. The white box is lit by a 100 W lamp placed at a distance of 25 cm and the black box, into which the mouse will spontaneously go because she feels safe in the darkness, contains an electrified metal floor. The boxes are coated with the smell of mice by an animal placed inside before each of the two series of 15 mice. […]
Ten minutes before learning, the marked mice receive an intraperitoneal injection of physiological serum or of Compound 1. […] The mice were then placed one by one in the illuminated white box and the arrival time in the black box is recorded. […]
After 24 hours, the avoidance test takes place: the mouse is placed in the white box and whether or not the mouse enters the black box in three minutes is recorded without any electrical shock being caused. If the mouse enters the black box in less than three minutes, the molecule tested has not improved the acquisition of the information "black box=electric shock" but if the time recorded is greater than three minutes, the molecule is assumed to have acted.

man = conditions: cited from earlier work
benzodiazepine receptor [5] = conditions: cited from earlier work
[6] = in vivo (anxiolytic, anticonvulsant, and the like); cited from earlier work
[7] = target: central receptors of benzodiazepines; conditions: in vitro, rat brain; read-out: IC50 at central benzodiazepine receptors; cited from earlier work
mice = conditions: facilitating convulsions caused by other agents such as pentylenetetrazole; cited from earlier work
[8] = in vivo; cited from earlier work
[9] = in vivo; cited from earlier work; remark: listed apart in the source

For CCOC(=O)c1cc2cc(C(=O)OCC)[nH]c2cn1 [2,5-dicarbethoxy-6-azaindole], the IC50 (benzodiazepine receptor [1]) is given as 84000 nM.

With COC(=O)c1cc2c(COCc3ccccc3)c[nH]c2cn1 [Example 1, Methyl 3-Benzyloxymethyl-6-Azaindole-5-Carboxylate] the convulsions [2] was “None of the mice showed the least convulsion”, the “change of the potential difference (PD) of the oocyte” value (from here on “change of the potential difference”) [3] was “slight reduction of the PD” and the “pharmacological profile at the benzodiazepine receptor” value [3] was “partial inverse agonist”. The IC50 (benzodiazepine receptor [4]) was 750 nM, the “memory-enhancing effect during the passive avoidance test” value (female Swiss mice) was “memory-enhancing effect of the compound during the passive avoidance test with learning in a single test has therefore been revealed” and the “animals treated with the molecule that learnt to avoid the electric shock” value (female Swiss mice; 24 hours) was 75%.

Compound COCc1c[nH]c2cnc(C(=O)OC)cc12 [Example 2] has an IC50 (benzodiazepine receptor [4]) of 1500 nM.

COC(=O)c1cc2c(COCc3ccccc3F)c[nH]c2cn1 [Example 3] showed an IC50 (benzodiazepine receptor [4]) of 65 nM.

COC(=O)c1cc2c(COCc3cccc(F)c3)c[nH]c2cn1 [Example 4] gave an IC50 (benzodiazepine receptor [4]) of 100 nM.

Work on COC(=O)c1cc2c(COCc3ccc(F)cc3)c[nH]c2cn1 [Example 5] yielded an IC50 (benzodiazepine receptor [4]) of 75 nM.

With COC(=O)c1cc2c(COCc3ccccc3[N+](=O)[O-])c[nH]c2cn1 [Example 6] the IC50 (benzodiazepine receptor [4]) was 1200 nM.

In the case of COC(=O)c1cc2c(COCc3cccc([N+](=O)[O-])c3)c[nH]c2cn1 [Example 7], the IC50 (benzodiazepine receptor [4]) is reported as 1300 nM.

Work on COC(=O)c1cc2c(COCc3ccc([N+](=O)[O-])cc3)c[nH]c2cn1 [Example 8] yielded an IC50 (benzodiazepine receptor [4]) of 300 nM.

Work on COC(=O)c1cc2c(COCc3cccc(OC)c3)c[nH]c2cn1 [Example 9] yielded an IC50 (benzodiazepine receptor [4]) of 10000 nM.

For COC(=O)c1cc2c(COCCc3ccccc3)c[nH]c2cn1 [Example 10], the IC50 (benzodiazepine receptor [4]) was 8 nM.

COC(=O)c1cc2c(COCC=Cc3ccccc3)c[nH]c2cn1 [Example 11] showed an IC50 (benzodiazepine receptor [4]) of 150 nM.

O=C(Nc1ccccc1C(=O)O)c1cc2cc[nH]c2cn1 [Example 12, 5-Phenylamido-6-Azaindole-2'-Carboxylic Acid] showed an IC50 (benzodiazepine receptor [4]) of 300 nM.

In the case of O=C(Nc1ccccc1)c1cc2cc[nH]c2cn1 [Example 13], the IC50 (benzodiazepine receptor [4]) is reported as 7000 nM.

With O=C(O)c1cccc(NC(=O)c2cc3cc[nH]c3cn2)c1 [Example 14] the IC50 (benzodiazepine receptor [4]) was 5500 nM.

For O=C(O)c1ccc(NC(=O)c2cc3cc[nH]c3cn2)cc1 [Example 15], the IC50 (benzodiazepine receptor [4]) was 2300 nM.

In the case of CCOC(=O)c1ncn2c1CN(C)C(=O)c1cc(F)ccc1-2 [Flumazenil], the “memory-enhancing properties in man” value (man) is given as “memory-enhancing properties were revealed” and the “functional class at the benzodiazepine receptor” value (“functional class” for short) (benzodiazepine receptor [5]) is given as “antagonists of the benzodiazepine receptor”.

For CCOC(=O)c1ncc2[nH]c3cccc(OCc4ccccc4)c3c2c1COC [ZK 91296], the “pharmacological profile at the benzodiazepine receptor” value [3] is listed as “partial agonist” and the “in vivo properties compared with diazepam” value [6] is listed as “properties analogous to those of diazepam in vivo (anxiolytic, anticonvulsant, and the like)”.

For CCOC(=O)c1ncc2[nH]c3ccc(OCc4ccccc4)cc3c2c1COC [ZK 93423], the “in vivo properties compared with diazepam” value [6] is listed as “properties analogous to those of diazepam in vivo (anxiolytic, anticonvulsant, and the like)”.

For CCOC(=O)c1ncc2[nH]c3cccc(OC(C)C)c3c2c1C [ZK 93426], the “memory-enhancing properties in man” value (man) is given as “memory-enhancing properties were revealed” and the “functional class” value (benzodiazepine receptor [5]) is given as “antagonists of the benzodiazepine receptor”.

With CN1C(=O)CN=C(c2ccccc2)c2cc(Cl)ccc21 [diazepam] the “change of the potential difference” value [3] was “great increase”.

For CCOC(=O)c1cc2c(cn1)[nH]c1ccccc12 [β-CCE, ethyl ester of β-carboline-3-carboxylic acid], the IC50 [7] is given as 4 nM and the proconvulsant effect (mice) is given as “proconvulsant in mice”.

In the case of COC(=O)c1cc2c(cn1)[nH]c1ccccc12 [β-CCM], the “functional class” value (benzodiazepine receptor [5]) is given as “inverse agonists of the benzodiazepine receptor”, the “change of the potential difference” value [3] is given as “significant reduction” and the “effect on learning and memory” value [8] is given as “positive effect on learning and memory”. The convulsant activity [9] was “highly convulsant activity”.

From US5484793A, “Compounds derived from 6-azaindoles as ligands of the benzodiazepine receptor and medicaments containing them” (Centre National de la Recherche Scientifique (CNRS), priority 1991, dated 1996)
